# Source: patent US10231958B2, “Methods and compositions for enhancing chemotherapy” (THE BOARD OF REGENTS OF THE UNIVERSITY OF TEXAS SYSTEM, priority 2015, dated 2019)
# Starred links: 1 amine or outer side, 2 acyl side, 3 side chain; linkers in the order of their positions; H or OH if unused. Positions of bridges follow the written chain, without caps; N, C: chain ends. Non-standard residues stand in square brackets, D forms with d. Residues, ends and D or L forms follow the SMILES beside them. Chains are numbered I, II in the order given. Actinocin(9to1) = Cc1c2oc3c(C)ccc(C(=O)[*:1])c3nc-2c(C(=O)[*:2])c(N)c1=O; NMeV = CN[C@H](C(=O)O)C(C)C; Sar = CNCC(=O)O
# Legend:
# [1] = tested on: Intracellular ROS production; test: Real-time ROS production (DCF assay); format: cell-based; conditions: for ROS production, agent alone: BSO 2.5 mM, CDDP 75 μM, TMZ 1.5 mM, 4HC 75 μM, 12 h
# Procedure: Intracellular ROS production was detected using DCFH-DA probe (Sigma) (Zanotto-Filho et al., 2010, Cancer Lett 288, 192-203). This reagent enters the cells and reacts predominantly with highly oxidizing species of ROS, such as hydroxyl radicals, hydroperoxides, and peroxynitrite, thus producing the fluorophore DCF. Briefly, cells were seeded in black-edge clear bottom 96-well plates. After reaching 70% confluence, medium was changed and cells were incubated with 20 μM DCFH-DA dissolved in medium containing 0.5% FBS. After 1 h pre-incubation to allow DCFH-DA uptake, treatments were added to its respective final concentrations and DCF fluorescence was monitored at 0.5, 1, 3, 8, 12, 16 and 24 h in a fluorescence reader (Ex/Em=485/532 nm). Hydrogen peroxide was used as a positive control and N-acetylcysteine (NAC), GSH-ethyl-ester (GSH-E) and Trolox were used as antioxidant standards. As a control, at the end of 24 h, cell viability was assessed and compared to wells in the absence of DCFH-DA.
# [2] = tested on: IL8, MMP1, MMP3 and PGE2; test: ELISA of inflammatory mediators in culture medium; format: cell-based, human; conditions: for production of IL-8, MMP-1 and MMP-3: MDA-MB231 culture medium; for prostaglandin E2 (PGE2) in culture medium and COX-2 protein in lysates: human cancer cells, 12 h
# Procedure: (§1) Quantification of MMP1 and MMP3 content in culture medium was assessed using RayBio-MMP3 and RayBio-MMP1 Elisa Kit (RayBiotech, Inc); IL8 was analyzed by Human IL-8 Elisa kit (Pierce Biotechnology). The levels of prostaglandin E2 (PGE2) were determined using the Prostaglandin E2 EIA Kit Monoclonal (Cayman Chemical Company). Culture media were diluted to fit within the standard curves. For conditioned media (CM) preparation for invasion and in vitro angiogenesis experiments, 12-well plated cells were treated with MMS (or MMS plus inhibitors) for 8 h in the presence of 10% FBS, twice washed with HBSS, and incubated with 700 μL drug/serum-free fresh medium for additional 12 h. Thereafter, the conditioned fresh medium was collected and directly used for migration and invasion experiments in order to reduce freezing associated loss of activity.
# [3] = tested on: NRF2, GCLC, ER stress markers; test: Western blot of NRF2, GCLC and ER stress markers; format: cell-based; conditions: for NRF2 and GCLC protein levels: MEFs, MDA-MB231, MCF-7, 8-12 h; for immunocontent of ER stress markers: cancer cells, 24 h; for effect on MMS-induced NRF2 activation: CHX 1 μg/mL, Actinomycin D 5 μg/mL, NAC 7.5 mM
# Procedure: Western blot. Protein lysates were prepared using RIPA buffer containing 5% sodium deoxycholate, 0.1% SDS, 0.1% Igepal in PBS with a cocktail of protease and phosphatase inhibitors (1 mM PMSF, 1 mM sodium orthovanadate, 1 mM NaF, and 30 μL/mL aprotinin (Sigma-Aldrich, USA)) and clarified by centrifugation. Protein concentration was determined using Bradford Protein Assay Reagent (Biorad, Hercules, Calif.). Equal amounts of protein were resolved using 8-12% SDS polyacrylamide gel, transferred onto nitrocellulose membranes (Hybond-ECL, GE Healthcare Lifesciences, Piscataway, N.J.) and detected using Lumiglo system (Cell Signaling Technology, Calif.) and x-ray films. Primary antibodies included COX-2 (#4842), NRF2 (D1C9), p-JNK1/2 (Thr183/Tyr185, #4671), p-p38 (Thr180/Tyr182, #9216), p-ERK1/2 (Thr202/Tyr204, #9101), BiP/GRP78 (C50B12), IRE1a (14C10), CHOP (L63F7) and PERK (D11A8) from Cell Signaling Technology; p-IRE1a (Ser724; NB100-2323) from Novus Biologicals; GCLC (Ab41463), beta-actin (ab8227) and ATF6 (Ab37149) from Abcam; p-PERK (Thr 981, sc-32577) and ATF3 (C19) were purchased from Santa Cruz. All primary antibodies were used at 1:1000 dilutions and secondary antibodies were 1:3000 in TBS-T with 5% BSA.
# [4] = tested on: NFκB-responsive firefly luciferase construct in MDA-MB231 cells; test: NFκB gene reporter assay; format: cell-based, human; conditions: MDA-MB231, pre-incubation with inhibitor
# Procedure: (§2) Prior to transfection, cells were plated in 96-well plates to 80-90% confluence (100 μL antibiotic free-medium) after 24 h. When used, siRNA were incubated by reverse transfection during cells seeding. […] A mixture of non-inducible firefly luciferase construct and constitutively expressing Renilla luciferase construct (40:1) were used as negative controls. Approximately 24 h post-transfection, the medium was changed and the cells were treated for 12 h with alkylating agents (with/out 6 h pre-treatments). At the end of this period, medium was changed to drug-free fresh medium (to minimize the effect of alkylating toxicity on promoters activity) and cells were kept for an additional 12 h.
# [5] = tested on: human endothelial cells; test: In vitro angiogenesis (Angiophase kit, CD31); format: cell-based; conditions: direct incubation
# Procedure: as §1
# The Angiophase kit (MBL Inc.) was used to assess the angiogenic potential of conditioned media (CM) from breast cancer cells or the direct effect of pharmaceutical inhibitors (free-drug system) on vessel-like structures formation in vitro. With this kit, human endothelial cells are co-cultured in a specially designed medium to form threadlike tubule structures. These gradually join up to form a network of anastomosing tubules, which resemble the capillary bed found in the CAM assay. Kit-provided cryopreserved co-culture of human endothelial cells were plated and kept for 96 h (proliferative phase) without treatments. Afterwards, the cells were maintained in the presence of conditioned medium from alkylating agent treated cells or control medium for a total of 14 days (angiogenic/vasculogenic phase). Medium was changed each 2 days. At the end of treatments, the cells were fixed and immune-stained for CD31 (PECAM-1), following by incubation with secondary antibody conjugate. ELISA was developed using the soluble substrate p-nitrophenyl-phosphate (p-NPP) whose product was colorimetrically read at 405 nm. After ELISA assays, the wells were washed with dH2O and tubule staining was performed by incubating CD31-stained tubules with the substrate BCIP/NBT, which form insoluble precipitates. Tubules were counted and photographed for qualitative monitoring.
# [6] = tested on: AP1-responsive firefly luciferase construct in MDA-MB231 cells; test: AP-1 gene reporter assay; format: cell-based, human; conditions: MDA-MB231, pre-incubation with inhibitor
# Procedure: as §2
# [7] = tested on: Kc167 cells, MEFs, and MDA-MB231 breast cancer cells; test: Cell viability (CellTiter-Glo); format: cell-based, D. melanogaster, mouse, human; conditions: pre-incubation, then MMS; all cell types tested; 48 h
# Procedure: The D. melanogaster embryonic cell line Kc167 was grown in Schneider medium (Invitrogen, Carlsbad, Calif.) supplemented with 10% heat-inactivated (56° C./30 min) fetal bovine serum (FBS), penicillin and streptomycin at 22° C. in a humidified incubator. Primary MEFs were obtained by harvesting 14.5-day C57BL/6J embryos as previously described (Ravi et al., 2009, PLoS Genet 5, e1000527). Briefly, fetal liver and head were removed and the remainder of the embryo was mechanically disaggregated in plating medium. A suspension of single-cells was plated in DMEM (plus 10% FBS, 100 U/mL penicillin and 100 μg/mL streptomycin). MEFs were grown for two passages before freezing aliquots. Aliquots were taken and expanded as needed for each experiment. MDA-MB231, SkBr3 and MCF-7 breast cancer cells lines were obtained from ATCC and grown in DMEM supplemented with 10% inactivated FBS plus antibiotics in a 37° C. humidified incubator at […] atmosphere. Cells were kept and treated in the exponential phase of growing (60-70% confluence). […] DMSO concentrations were kept to a maximum of 0.1% for all experiments. Cell viability was assessed using CellTiter-Glo Luminescent Viability assay (Promega) in 384 or 96-well plates white-border clear-bottom plated cells. For caspase-3/7 activity, Caspase-Glo 3/7 Assay kits were used (Promega). For caspase assays, the cells were seeded in 96-well plates and assayed directly after treatments. Caspase-3/7 inhibitor (Z-DEVD-fmk) was used to ensure assay specificity. LDH release into culture medium was quantified by Cytotox-96 Non-Radioactive assay kit in agreement with instructions (Promega).
# [8] = tested on: MDA-MB231 xenograft implants; test: MDA-MB231 xenograft study; format: in vivo, mouse
# Text: The study was approved by the University of Texas Health Science Center at San Antonio Institutional Animal Care and Use Committee (IACUC) policy as outlined in protocol number 11024. The facility is operated in compliance with the Public Law 89-544 (Animal Welfare Act) and its amendments, Public Health Services Policy on Humane Care and Use of Laboratory Animals (PHS Policy) using the Guide for the Care and Use of Laboratory Animals (Guide) as the basis of operation. Selection of cyclophosphamide and sorafenib doses was based on previously published reports (Sun et al., 2010, J Int Med Res 38, 967-76; Wilhelm et al., 2004 Cancer Res 64, 7099-109). MDA-MB-231 cells were harvested by trypsinization, washed and re-suspended in serum-free medium. Thereafter, cells were mixed with matrigel (1:1), and approximately 5×10^6 cells were subcutaneously injected in the right flank of each mouse. When the average tumor volume reached about 100 mm^3, mice were randomized into groups of 8 animals each, and the following treatment protocol was implemented: Group 1 (control): 100 μL of saline (i.p.); Group 2: sorafenib (1 mg/kg; i.p.) for 9 days; Group 3: cyclophosphamide 0.1 g/kg on days 2, 4, 6 and 8; Group 4: Sorafenib+cyclophosphamide (combination of same above described regimens). All animals were sacrificed 5 days after the end of treatments (15th day of the treatment protocol). Body weight of mice was recorded weekly, and tumor size was measured thrice a week in two dimensions using a digital caliper. The tumor volume was calculated by the formula 0.5236 L1(L2)^2, where L1 is the long axis, and L2 is the short axis of the tumor. At the termination of the study, mice were euthanized; tumors were excised and a part was fixed in 10% phosphate-buffered formalin for H&E, Masson's staining and immunohistochemistry (IHC) analyses.
molecule,measurement,setting,value
"O=P1(N(CCCl)CCCl)NC(OO)CCO1 (centres unmarked) [4-HC, 4-hydroperoxycyclophosphamide]","ROS production, agent alone",[1],increased ROS
same,"production of IL-8, MMP-1 and MMP-3",[2],increased the production of these molecules
same,prostaglandin E2 (PGE2) in culture medium and COX-2 protein in lysates,[2],increased levels of prostaglandin E2 (PGE2)
same,NRF2 and GCLC protein levels,[3],induced NRF2 and GCLC protein
same,immunocontent of ER stress markers,[3],increased the immunocontent of ER stress markers
Cc1ccc(S(=O)(=O)/C=C/C#N)cc1 [BAY117082],effect on MMS-induced activation of NFκB reporter,[4],blocked
"[NH2][Pt]([NH2])([Cl])[Cl] [CDDP, cisplatin]","ROS production, agent alone",[1],increased ROS
same,"production of IL-8, MMP-1 and MMP-3",[2],increased the production of these molecules
same,prostaglandin E2 (PGE2) in culture medium and COX-2 protein in lysates,[2],increased levels of prostaglandin E2 (PGE2)
same,NRF2 and GCLC protein levels,[3],induced NRF2 and GCLC protein
same,immunocontent of ER stress markers,[3],increased the immunocontent of ER stress markers
"CCCCC[C@H](O)/C=C/[C@H]1[C@H](O)CC(=O)[C@@H]1C/C=C\CCCC(=O)O [PGE2, prostaglandin E2]","vessel-like structure formation, purified factor",[5],angiogenic
C[S+]([O-])c1ccc(-c2nc(-c3ccc(F)cc3)c(-c3ccncc3)[nH]2)cc1 (centres unmarked) [SB203508],effect on MMS-induced activation of NFκB reporter,[4],only blocked the NFκB reporter
same,effect on MMS-induced activation of AP-1 reporter,[6],only blocked the NFκB reporter
O=C1c2ccccc2-c2n[nH]c3cccc1c23 [SP600129],effect on MMS-induced activation of AP-1 reporter,[6],blocked
Cc1c(C)c2c(c(C)c1O)CCC(C)(C(=O)O)O2 (centres unmarked) [Trolox],effect on ROS levels,"[1]; Trolox 200 μM, NAC 7.5 mM, GSH-E 10 mM",reduced ROS below levels of the control
same,effect on MMS toxicity,[7],had no effect
"Cc1c2oc3c(C)ccc(C(=O)N[C@@H]4C(=O)N[C@H](C(C)C)C(=O)N5CCC[C@H]5C(=O)N(C)CC(=O)N(C)[C@@H](C(C)C)C(=O)O[C@@H]4C)c3nc-2c(C(=O)N[C@@H]2C(=O)N[C@H](C(C)C)C(=O)N3CCC[C@H]3C(=O)N(C)CC(=O)N(C)[C@@H](C(C)C)C(=O)O[C@@H]2C)c(N)c1=O [actinomycin D] (I: T[dV]P[Sar][NMeV] / II: T[dV]P[Sar][NMeV]; ester I:1-I:C, II:1-II:C; linker I:N-II:N via Actinocin(9to1))",effect on MMS-induced NRF2 activation,[3],blocked NRF2 activation
C[C@@H]1C[C@@H]([C@H](O)CC2CC(=O)NC(=O)C2)C(=O)[C@@H](C)C1 [cycloheximide],effect on MMS-induced NRF2 activation,[3],blocked NRF2 activation
O=P1(N(CCCl)CCCl)NCCCO1 (centres unmarked) [cyclophosphamide],collagen deposition (wound healing phenotype),[8]; cyclophosphamide alone,spreading areas of collagen deposition
same,"tumor microvessels (histology, CD31)",[8]; cyclophosphamide alone vs untreated,increased number of niches of microvessels
same,"tumor growth, single agent","[8]; sorafenib 1 mg/kg i.p. 9 days, cyclophosphamide 0.1 g/kg days 2, 4, 6, 8",reduced tumor size
VEGF,"vessel-like structure formation, purified factor",[5],angiogenic
